Test results as given in US9040568B2, “Pharmaceutical compositions for the treatment of pain” (AbbVie Inc., priority 2009, dated 2015).

Tests used:
Format in all cases: in vivo, rat
[1] = tested on: post-operative pain (skin incision of the hind paw); experiment: Incision model of postoperative pain (mechanical allodynia, von Frey)
Experimental: Paw incision was performed under isoflurane (2-3%) anesthesia and followed procedures previously described (Brennan et al., 1996). Briefly, the plantar aspect of the left hindpaw was placed through a hole in a sterile plastic drape. A 1-cm longitudinal incision was made through the skin and fascia, starting 0.5 cm from the proximal edge of the heel and extending towards the toes, the plantar muscle was elevated and injured longitudinally leaving the muscle origin and insertion points intact. After hemostasis with gentle pressure, the skin was apposed with 2 mattress sutures of 5-0 nylon. Mechanical allodynia was measured using calibrated von Frey filaments (Stoelting, Wood Dale, Ill.) as previously described (Chaplan et al., 1994) in all animals 2 h following surgery. Rats were placed into inverted individual plastic containers (20×12.5×20 cm) on top of a suspended wire mesh grid, and acclimated to the test chambers for 20 min. The von Frey filaments were presented perpendicularly to the plantar surface pointing towards the medial side of the incision (Brennan et al., 1996), and then held in this position for approximately 8 s with enough force to cause a slight bend in the filament. Positive responses included an abrupt withdrawal of the hind paw from the stimulus, or flinching behavior immediately following removal of the stimulus. A 50% paw withdrawal threshold (PWT) was determined using an up-down procedure (Dixon, 1980). Mechanical allodynia was assessed 30 min following i.p. compound administration.

[2] = tested on: MIA-induced osteoarthritis pain; experiment: Monoiodoacetate-induced osteoarthritis (MIA-OA) pain model, compressive grip force
Experimental: Under light isoflurane (2-3%) anesthesia, MIA (3 mg) was unilateral intra-articularly injected into right hind knee joint in a volume of 50 μl as previously described (Chandran et al., 2009). Compressive grip force (CGF) was determined 20 days following MIA injection by recording the maximum compressive force exerted on the hind limb strain gauge setup, using a commercially available grip force measurement system (Columbus Instruments, Columbus, Ohio). In this assay, each rat was gently restrained and the hind paw was allowed to grasp the wire mesh frame (10×12 cm) attached to the strain gauge. The animal was then moved in a rostral-to-caudal direction until the grip was broken, and CGF reading expressed as g was recorded. Each rat was sequentially tested twice at approximately 2-3 min intervals to obtain an average raw CGF. To avoid confounding factor of body weight, CGF was converted into CGFbody following the formula: g (CGF)÷kg (body weight). CGF was assessed 30 min following i.p. compound administration. The vehicle control group was taken as 0%, whereas the age-matched naïve group was described as 100% (normal), the analgesic efficacy was expressed as the percentage return of CGFbody to normalcy vs. the naïve group: [(treatment-vehicle)/(naïve-vehicle)]×100%. Experiments were performed in animals 20 days following MIA knee joint injection, since this is the time point that maximal reduction of grip force observed in the time-course experiment (Chandran et al., 2009).

[3] = tested on: nerve injury induced mechanical allodynia; experiment: Chung model of neuropathic pain (L5-L6 spinal nerve ligation, tactile allodynia, von Frey)
Experimental: To assess whether α4β2 PAM can increase antinociceptive responses of agonists in vivo, the following study was conducted. The materials and methods used to accomplish the study follow.
Male Sprague-Dawley rats (Charles River, Wilmington, Mass.) weighing 120-150 grams at time of surgery were utilized. These animals were group housed in AAALAC approved facilities at Abbott Laboratories in a temperature-regulated environment with lights on between 0700 and 2000 hours. Food and water was available ad libitum except during testing. All animal handling and experimental protocols were approved by an institutional animal care and use committee (IACUC). All experiments were performed during the light cycle.
5[(2R)-Azetidin-2-ylmethoxy]-2-chloropyridine (Compound A, 1-100 nmol/kg) and 3-(3-pyridin-3-yl)-1,2,4-oxadiazol-5-yl)benzonitrile (α4β2 PAM Compound 1, 1-35 μmol/kg, i.p.) was used. Compound A and D was prepared in saline and injected in solution in a volume of 2 ml/kg body weight 30 minutes before behavioral evaluation. Compound 1,3-(3-(pyridin-3-yl)-1,2,4-oxadiazol-5-yl)benzonitrile, was prepared in 30% hydroxybetacyclodextrin and injected in solution in a volume of 4 ml/kg body weight immediately before Compound A. For studies with Compound D, the doses tested ranged from 0.3-30 μmol/kg i.p.
To produce neuropathic pain, tight ligation of the L5-L6 spinal nerves was performed. As previously described in detail by Kim and Chung (Kim S H and Chung J M (1992), Pain 50: 355), following sterilization procedures, a 1.5 cm incision was made dorsal to the lumbosacral plexus. The paraspinal muscles (left side) were separated from the spinous processes, the L5 and L6 spinal nerves isolated, and tightly ligated with 3-0 silk thread. Following hemostasis, the wound was sutured and coated with antibiotic ointment. The rats were allowed to recover and then placed in a cage with soft bedding for 7-14 days before behavioral testing for mechanical allodynia.
Tactile allodynia was measured using calibrated (force; g) von Frey filaments (Stoelting, Wood Dale, Ill.). Briefly, rats were placed into individual plexiglass containers and allowed to acclimate for 15-20 minutes before testing. Withdrawal threshold was determined by increasing and decreasing stimulus intensity and estimated using a Dixon non-parametric test (Chaplan et al., 1994; Chaplan S R, Bach F W, Pogrel J W, Chung J M and Yaksh T L (1994) J Neurosci Methods 53:55-63). Only rats with threshold scores<4.5 g were considered allodynic and utilized in further testing. A percent of maximal possible effect (% M.P.E.) of the tested compounds was calculated according to the formula: ([post-drug threshold]-[baseline threshold])/([maximum threshold]-[baseline threshold])×100%, where maximum threshold was equal to 15 g.
Analysis of the in vivo data was carried out using analysis of variance. Where appropriate, Bonferroni's Multiple Comparison Test was used for post-hoc analysis. The level of significance was set at p less than 0.05. Data are presented as mean±S.E.M.

[4] = Compound A 10 nmol/kg combined with Compound 1 (3.5 μmol/kg)
[5] = co-administration of Compound 1

Clc1ccc(OC[C@H]2CCN2)cn1 [Compound A, 5-[(2R)-azetidin-2-ylmethoxy]-2-chloropyridine]
percent reversal of mechanical allodynia [1, 4]: 22±14% | PWT ([1]; Compound A 10 nmol/kg in the presence of Compound 1 (3.5 μmol/kg)): 5.0 ± 1.9 g | percent reversal of mechanical allodynia ([1]; Compound A 30 nmol/kg combined with Compound 1 (3.5 μmol/kg)): 54±16% | PWT ([1]; Compound A 30 nmol/kg in the presence of Compound 1 (3.5 μmol/kg)): 9.2 ± 2.1 g | percent reversal of mechanical allodynia ([1]; Compound A 100 nmol/kg combined with Compound 1 (3.5 μmol/kg)): 85±10% | PWT ([1]; Compound A 100 nmol/kg in the presence of Compound 1 (3.5 μmol/kg)): 13.1 ± 1.2 g | PWT ([1]; Compound A alone, 100 nmol/kg): 6.0 ± 1.0 g | percent reversal of mechanical allodynia ([1]; Compound A alone, 100 nmol/kg): 25±8% | PWT ([1]; Compound A alone, 300 nmol/kg): 12.0 ± 1.6 g | percent reversal of mechanical allodynia ([1]; Compound A alone, 300 nmol/kg): 75±12% | ED50 ([1]; Rattus norvegicus, Compound A alone, read-out: ED50 (reversal of mechanical allodynia)): 0.165 µmol/kg | leftward shift in the DRC of Compound A [1, 5]: 6 fold | percent return of grip force to normalcy ([2]; Compound A 0.3 nmol/kg combined with Compound 1 (3.5 μmol/kg)): 29±2% | CGFbody ([2]; Compound A 0.3 nmol/kg/kg in the presence of Compound 1 (3.5 μmol/kg)): 657 ± 21 g | percent return of grip force to normalcy ([2]; Compound A 1 nmol/kg combined with Compound 1 (3.5 μmol/kg)): 50±3% | CGFbody ([2]; Compound A 1 nmol/kg/kg in the presence of Compound 1 (3.5 μmol/kg)): 855 ± 28 g | percent return of grip force to normalcy ([2]; Compound A 3 nmol/kg combined with Compound 1 (3.5 μmol/kg)): 66±5% | CGFbody ([2]; Compound A 3 nmol/kg/kg in the presence of Compound 1 (3.5 μmol/kg)): 971 ± 35 g | percent return of grip force to normalcy [2, 4]: 92±6% | CGFbody ([2]; Compound A 10 nmol/kg/kg in the presence of Compound 1 (3.5 μmol/kg)): 1243 ± 56 g | CGFbody ([2]; Compound A alone, 1 nmol/kg): 575 ± 37 g | percent return of grip force to normalcy ([2]; Compound A alone, 1 nmol/kg): 20±4% | CGFbody ([2]; Compound A alone, 3 nmol/kg): 717 ± 64 g | percent return of grip force to normalcy ([2]; Compound A alone, 3 nmol/kg): 35±6% | CGFbody ([2]; Compound A alone, 10 nmol/kg): 992 ± 45 g | percent return of grip force to normalcy ([2]; Compound A alone, 10 nmol/kg): 65±5% | CGFbody ([2]; Compound A alone, 30 nmol/kg): 1234 ± 37 g | percent return of grip force to normalcy ([2]; Compound A alone, 30 nmol/kg): 90±4% | ED50 ([2]; Rattus norvegicus, Compound A alone, read-out: ED50 (return of grip force to normalcy)): 0.0046 µmol/kg | leftward shift in the DRC of Compound A [2, 5]: 5 fold | efficacy in neuropathic pain ([3]; Compound A 1 nmol/kg alone): ineffective | efficacy in neuropathic pain ([3]; Compound A 1 nmol/kg combined with varying doses of Compound 1): dose-dependent increase in efficacy | mechanical paw withdrawal threshold (PWT) ([3]; Compound A co-administered with Compound 1 (PAM)): 12.1 ± 0.5 g

N#Cc1cccc(-c2nc(-c3cccnc3)no2)c1 [Example 1, 3-(3-(pyridin-3-yl)-1,2,4-oxadiazol-5-yl)benzonitrile]
alteration of PWT of the injured paw ([1]; Compound 1 alone, up to 35 μmol/kg, i.p.): produced no alteration of PWT | return of grip force normalcy ([2]; Compound 1 alone, 3.5 μmol/kg i.p.): produced no return of grip force normalcy | effect on the dose response curve of Compound A ([3]; Compound 1 3.5 μmol/kg with various doses of Compound A): left-shifting the dose response curve of Compound A | efficacy in neuropathic pain ([3]; administered alone): ineffective
